Measurements as given in US20230096051A1, “CGRP ANTIGONISTS USEFUL AS TRACER COMPOUNDS FOR POSITRON EMISSION TOMOGRAPHY” (Eli Lilly and Company, priority 2019, published 2023).
Like-named read-outs stand apart in the source and are kept apart here.

Test: In vivo rat tracer distribution and brain uptake (LC-MS/MS)
Set-up: species or system Sprague-Dawley rats
Details: Sprague-Dawley, iv, 10 μg/kg i.v.
Experimental: Stock Formulation: Prepare a tracer stock solution at 0.5 mg/mL in 25% HP-BCD/PW (corrected for salt weight). Vortex thoroughly for 30 sec and place in bath sonication for 30 mins. Confirm the stock formulation is a clear solution or homogeneous suspension. Acid (10 μL acetic acid) or base (10 μL 5N NaOH), probe sonication, or a sonic bath may be used to aid in solubilization.
Final Dosing Formulation: If the stock formulation is a solution or homogeneous suspension, allow the stock solution to sit at room temperature for 5 min, and confirm and document the appearance of the stock formulation. Dilute the stock solution to the appropriate dose concentrations with 25% HP-BCD/PW. Vortex the final dosing solutions for 30 sec. Final tracer dosing solution is used for generation of the LC/MS/MS calibration standards in the appropriate matrix.
Study populations: Animal studies are performed under protocols approved by Eli Lilly and Company and PreClinOmics Institutional Animal Care and Use Committee. Twenty Sprague-Dawley rats weighing 200-300 g are obtained from Harlan Sprague Dawley Inc. (Indianapolis, Ind.) and are randomized into 4 groups of 5 animals each. Animals have access to food and water ad libitum before the study.
Live Phase Methods: Five animals per dose group are used. Each animal receives 10 μg/kg of the CGRP tracer compound administered intravenously in the lateral tail vein. Animals are euthanized by cervical dislocation followed by decapitation or live decapitation after 5, 10, 20 or 40 min survival intervals.
Trunk blood is collected in EDTA-coated Eppendorf tubes and stored on wet ice until study completion. The whole brain is rapidly removed, and lightly rinsed with sterile water. Frontal cortex, hippocampus, cerebellum, brainstem, and striatum brain tissues are dissected, weighed, stored in 1.5 mL Eppendorf tubes, and placed on wet ice until completion of live phase study.
Using a drug naïve test subject, blood and seven cortical brain tissues samples are collected for use in generating blank and standard curve samples.
Tissue—Tissue samples are kept on wet ice until the completion of the live phase. Tissue samples collected from test and naïve subjects are homogenized at PreClinOmics (Indianapolis, Ind., USA) and immediately taken to AIT Bioscience (Indianapolis, Ind., USA) on wet ice to be centrifuged along with an excel sheet indicating tissue weights, amount of ACN+0.1% HCOOH added to all tissue samples, and how the naive tissues were spiked for standards. Details on processing at PreClinOmics are as follows:
ACN containing 0.1% HCOOH is added to each tissue sample at a volume of four times the weight of the tissue sample (e.g., Add 600 μL ACN to a 150 mg brain tissue). The sample is homogenized via probe sonication. The standard curve is a 6-point curve with the range of 0.3-60 ng/g, linear regression, correlation coefficient, R^2, minimum of ≥0.95. Calibration standards are prepared from control tissue matrix homogenate (of the same organ) spiked with a calculated volume of standard (prepared from the tracer dosing solution used during the live phase). The homogenized tissue samples and spiked standards are transferred to AIT Bioscience on wet ice. Once at AIT Biosciences, all homogenized samples are centrifuged for 20 min at 14,000 rpm. The supernatant solution is diluted with an internal standard solution (1.0 ng/mL diphenhydramine in water) at a ratio of 1:4. Following dilution of the supernatant, if the total sample volume in the well plate is too small for injection, an additional dilution is performed using the mobile phase, ACN:water:0.1% HCOOH (20:80:0.1), at a ratio of 1:1. This solution is mixed thoroughly and analyzed via LC/MS/MS for tracer compound. Additional dilutions incurred due to small sample volume have an appropriate dilution factor applied during regression analysis.
Blood Samples—Whole blood samples are kept on wet ice until the completion of the live phase. […]

[1] = brain stem, read-out: Mean tracer concentration ± SEM, Brain Stem
[2] = cerebellum, read-out: Mean tracer concentration ± SEM, Cerebellum
[3] = frontal cortex, read-out: Mean tracer concentration ± SEM, Frontal Cortex
[4] = hippocampus, read-out: Mean tracer concentration ± SEM, Hippocampus
[5] = plasma, read-out: Mean tracer conc (plasma) ± SEM
[6] = striatum, read-out: Mean tracer concentration ± SEM, Striatum

concentration at 5 min [1] [ng/g] | concentration at 10 min [1] [ng/g] | concentration at 20 min [1] [ng/g] | concentration at 40 min [1] [ng/g] | concentration at 5 min [2] [ng/g] | concentration at 10 min [2] [ng/g] | concentration at 20 min [2] [ng/g] | concentration at 40 min [2] [ng/g] | concentration at 5 min [3] [ng/g] | concentration at 10 min [3] [ng/g] | concentration at 20 min [3] [ng/g] | concentration at 40 min [3] [ng/g] | concentration at 5 min [4] [ng/g] | concentration at 10 min [4] [ng/g] | concentration at 20 min [4] [ng/g] | concentration at 40 min [4] [ng/g] | concentration at 5 min [5] [ng/mL] | concentration at 10 min [5] [ng/mL] | concentration at 20 min [5] [ng/mL] | concentration at 40 min [5] [ng/mL] | SMILES | other results
3.69 ± 0.29 | 2.46 ± 0.09 | 1.21 ± 0.08 | 0.41 ± 0.03 | 3.52 ± 0.16 | 1.91 ± 0.05 | 0.9 ± 0.06 | 0.28 ± 0.02 | 4.19 ± 0.29 | 2.27 ± 0.05 | 0.98 ± 0.06 | 0.29 ± 0.02 | 3.52 ± 0.32 | 2.33 ± 0.09 | 1.06 ± 0.07 | 0.33 ± 0.02 | 6.3 ± 0.63 | 3.37 ± 0.37 | 1.72 ± 0.12 | 0.48 ± 0.05 | Cc1cc(N2CCC2)cc(OCc2ccc([C@@H](C)[C@@]3(C)C(=O)NC[C@@H]3CF)cc2)n1 [Example 1, (3R,4R)-3-[(1R)-1-[4-[[4-(azetidin-1-yl)-6-methyl-2-pyridyl]oxymethyl]phenyl]ethyl]-4-(fluoromethyl)-3-methyl-pyrrolidin-2-one] | concentration at 5 min [6]: 3.94 ± 0.32 ng/g; concentration at 10 min [6]: 2.44 ± 0.13 ng/g; concentration at 20 min [6]: 1.12 ± 0.07 ng/g; concentration at 40 min [6]: 0.34 ± 0.02 ng/g
8.73 ± 0.51 | 5.27 ± 0.85 | 2.56 ± 0.33 | 1.08 ± 0.08 | 8.76 ± 0.48 | 4.78 ± 0.78 | 2.08 ± 0.22 | 0.88 ± 0.11 | 9.48 ± 0.57 | 5.07 ± 0.56 | 2.19 ± 0.24 | 0.8 ± 0.09 | 7.66 ± 0.42 | 4.64 ± 0.78 | 2.29 ± 0.36 | 0.74 ± 0.14 | 9.82 ± 0.82 | 5.54 ± 0.8 | 2.88 ± 0.37 | 1.03 ± 0.12 | Cc1cc(N2CC(F)C2)cc(OCc2ccc([C@@H](C)[C@@]3(C)C(=O)NC[C@@H]3C)cc2)n1 [Example 2, (3R,4R)-3-[(1R)-1-[4-[[4-(3-fluoroazetidin-1-yl)-6-methyl-2-pyridyl]oxymethyl]phenyl]ethyl]-3,4-dimethyl-pyrrolidin-2-one] | concentration at 5 min [6]: 9.36 ± 0.54 ng/g; concentration at 10 min [6]: 5.23 ± 0.91 ng/g; concentration at 20 min [6]: 2.42 ± 0.28 ng/g; concentration at 40 min [6]: 1.06 ± 0.16 ng/g
3.13 ± 0.22 | 2.01 ± 0.17 | 1.18 ± 0.06 | 0.42 ± 0.02 | 3.06 ± 0.22 | 1.76 ± 0.13 | 0.88 ± 0.06 | 0.31 ± 0.02 | 3.55 ± 0.33 | 1.92 ± 0.16 | 0.92 ± 0.05 | 0.31 ± 0.02 | 2.9 ± 0.2 | 1.91 ± 0.14 | 1.01 ± 0.06 | 0.34 ± 0.02 | 6.2 ± 0.5 | 3.65 ± 0.26 | 1.94 ± 0.15 | 0.73 ± 0.04 | Cc1cc(N2CC(F)C2)cc(OCc2ccc([C@@H](C)[C@@]3(C)C(=O)NC[C@@H]3CF)cc2)n1 [Example 3, (3R,4R)-3-[(1R)-1-[4-[[4-(3-fluoroazetidin-1-yl)-6-methyl-2-pyridyl]oxymethyl]phenyl]ethyl]-4-(fluoromethyl)-3-methyl-pyrrolidin-2-one] | concentration at 5 min [6]: 3.57 ± 0.28 ng/g; concentration at 10 min [6]: 2.14 ± 0.16 ng/g; concentration at 20 min [6]: 1.09 ± 0.07 ng/g; concentration at 40 min [6]: 0.36 ± 0.04 ng/g
